From US12649980B2, “Three-dimensional surface for protein and small molecule microarrays” (The Johns Hopkins University, priority 2019, dated 2026)

Assays:
DLD1 WT = assay: [3H]-2DG uptake in DLD1 WT cells; format: cell-based
Procedure: (§1) The inhibitory activity of compounds on glucose transport was analyzed by measuring the cell uptake of [3H]-2DG as previously described. Ulanovskaya et al., Chem. Biol. 2011, 18, 222-230. Briefly, cells were washed twice and incubated in low-glucose medium for 10 min. Cells were added drugs and incubated for another 10 min before adding [3H]-2DG. After 10 min incubation with [3H]-2DG, cells were washed twice and lysed with 0.2 N NaOH plus 0.2% SDS. The cell lysate was transferred to a new tube containing 1 mL of optiphase supermix. Glucose uptake was quantified with a scintillation counter.

DLD1 GLUT1 KO = assay: [3H]-2DG uptake in DLD1 GLUT1 knockout cells; format: cell-based; details: for inhibitory activity in GLUT1 knock out cells: DLD-1 GLUT1 knock out versus wild type
Procedure: as §1

GLUT1 [1] = target: T1, GLUT1 (Homo sapiens, UniProt P11166); assay: rapafucin 2D microarray screen with GLUT1-containing cell lysate; format: binding; details: signal-to-background ratio, 2D surface, same lysate and conditions
T1 construct: The full-length human SLC2A1, SLC2A3, and SLC2A4 genes were PCR amplified and inserted into pLenti6M vector 2; expressed in transfected cells
T1 sequence (P11166 1-492): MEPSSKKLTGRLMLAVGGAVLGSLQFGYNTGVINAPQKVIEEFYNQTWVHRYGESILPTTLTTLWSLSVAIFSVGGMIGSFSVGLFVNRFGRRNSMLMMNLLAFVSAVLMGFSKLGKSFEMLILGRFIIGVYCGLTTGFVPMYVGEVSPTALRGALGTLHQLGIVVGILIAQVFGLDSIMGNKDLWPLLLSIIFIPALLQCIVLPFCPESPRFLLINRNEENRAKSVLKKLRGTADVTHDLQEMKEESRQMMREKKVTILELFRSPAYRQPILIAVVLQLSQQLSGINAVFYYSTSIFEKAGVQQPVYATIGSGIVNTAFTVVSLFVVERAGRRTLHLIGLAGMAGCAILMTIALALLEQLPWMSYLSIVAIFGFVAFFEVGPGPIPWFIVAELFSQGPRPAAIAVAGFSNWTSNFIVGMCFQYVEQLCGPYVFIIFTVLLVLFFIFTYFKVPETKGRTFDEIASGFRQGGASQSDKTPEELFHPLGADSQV
From the text: (§2) Once stock solutions of the rapafucin library were arrayed on the 2D or 3D surface and most of solvent carrier was evaporated, the crosslinking reaction was initiated by irradiating the surfaces with 365-nm wavelength UV light. Kawatani and Osada, Medchemcomm 2014, 5, 277-287. […] To screen for GLUT1-interacting rapafucins, GLUT1 was stably overexpressed in HEK293T cells and generated cell lysates containing detergent-solubilized recombinant GLUT1 (FIG. 10). The GLUT1-containing cell lysate was then incubated on both 2D and 3D rapafucin microarrays. After washing the slides to remove unbound proteins, the bound GLUT1 protein was detected with anti-GLUT1 antibodies, followed by visualization with Cy5-labeled secondary antibodies using a microarray scanner. Rapafucins were scored as positive hits when the corresponding SBR was greater than 3. Based on this criterion, a total of 17 rapafucin hits and one positive control BAY-876, a specific GLUT1 inhibitor, Siebeneicher et al., ChemMedChem 2016, 11, 2261-2271, were identified on the 3D rapafucin microarray. In contrast, only one hit (WL13-F11, also among the 17 hits identified from the 3D rapafucin microarray) was identified on the 2D rapafucin microarray (Table 1, FIG. 11).
(§3) In the optimization experiments, the slides were incubated with 50 nM purified recombinant FKBP12 for 1 hour, while in the GLUT1 screening, 10 mg/mL of cell lysate containing DDM-solubilized GLUT1 from GLUT1 overexpressed HEK293T was incubated for 1 hour. Successively, primary antibody and CY5 labeled secondary antibody were added for 1 hour. The chips were washed in buffer A for 5 mins 3 times after the sample and antibodies incubation. After centrifugation, the dried chips were scanned by a microarray scanner (Genepix, US) at 635-nm wavelength. The final result was analyzed by GenePix software.

GLUT1 [2] = target: T1, GLUT1; assay: rapafucin 3D microarray screen with GLUT1-containing cell lysate; format: binding; details: signal-to-background ratio, 3D surface, lysate of GLUT1-overexpressing HEK293T; hit if SBR > 3
From the text: as §2
The amine substrates (Arrayit, SMM) were immerged in a mixture of 2-bromoisobutyryl bromide (BIBB, 0.1 mM, as initiator) and propionyl bromide (10 mM, as horizontal spacer) with triethylamine (15 mM) in DCM for 4 hours. A degassed polymerization reaction mixture, containing copper (II) chloride dihydrate (CuCl2, 4 mmol), 2,2′-bipyridine (2 mmol), 75 mmol monomers mixture of 2-(dimethylamino)ethyl methacrylate (DMAEMA) and poly(ethylene glycol) methacrylate (PEGMA Mn 360) in 500 mL Milli-Q/MeOH, was mixed with freshly made ascorbic acid (4 mmol). The mixture was applied to 50 slides for 6 hours under the argon atmosphere for the surface-initiated polymerization. A gradient ratio of PEGMA and DMAEMA was set, including 10:0, 8:2, 5:5, 2:8 and 0:10 for an optimization purpose. The terminals of the brushes were further functionalized by N,N′-disuccinimidyl carbonate (DSC, 10 mM) and 4-dimethylaminopyridine (DMAP,10 mM) in DMF overnight to form succinimidyl carbonate intermediate, and, successively, diazirine linker 1 (10 mM) and N,Ndiisopropylethylamine (DIPEA, 50 mM) in DMF for 2 hours to couple the photoaffinity linker in dark at room temperature. At the end, the substrates were immerged in a 50 mM ethanolamine in DMF to block the residual carboxylic moiety. The slides were thoroughly washed by DMF, EtOH and DCM and dried in a fuming cupboard and ready for spotting.
10 mM of rapafucins in DMSO from the library were spotted onto the slides with a high-precision microarrayer (Nanoprint, Arrayit, CA) for a desired pattern in dark, which was loaded with 16 100-μm diameter micro-spotting pins. The pin heads were thoroughly washed and sonicated in ethanol and dried for 4 times under a compassed air between each sample loading. After overnight evaporation, the slides were exposed to 365-nm wavelength UV irradiation for 4 J/cm^2 by CL-1000L UV crosslinker (UVP, CA) for rapafucins covalent immobilization. The slides were ultrasonic cleaned successively in DCM, MeOH and Milli-Q water and stored in a −20° C. freezer.
as §3

A549 cells = assay: [3H]-2DG uptake assay in A549 cells; format: cell-based, human; details: 10 min incubation with compound, mean ± s.d., n = 3
Procedure: To determine which of the 17 rapafucin hits inhibited the transporter activity of GLUT1, an orthogonal glucose uptake assay using 2-deoxy-D-[3H] glucose ([3H]-2DG), a nonhydrolyzable, radioactive glucose analog, was employed. Each hit was separately incubated with A549 cells for 10 min before the amount of [3H]-2DG taken up by the cells was measured using scintillation counting. […] The effect of JW11-D2 on uptake of [3H]-2DG in human red blood cells that exclusively express GLUT1 was then determined. Helgerson and Carruthers, J. Biol. Chem. 1987, 262, 5464-5475. […] To further improve the potency of JW11-D2, a structure-activity relationship (SAR) study was performed by synthesizing 21 new analogs of JW11-D2 using different amino acid building blocks.
as §1

[3] = system: glutathione S-transferases; details: Yamada and Kaplowitz 1980; cited from earlier work
GLUT1 [4] = target: T1, GLUT1; assay: biotin-RgA pull-down and biotin probe competition binding assay, GLUT1; details: lysate of HEK293T overexpressing GLUT1, Western blot
Procedure: Next, the binding affinity of RgA for GLUT1 was determined using a RgA biotin pull-down assay. A biotin-RgA conjugate was synthesized by tethering the biotin moiety through carbon:carbon double bond in the FKBP-binding domain of RgA (FIG. 13). […] Using the biotin-RgA conjugate, a pulldown experiment with cell lysate containing detergent-solubilized GLUT1 protein prepared from HEK293T cells overexpressing GLUT1 was performed, followed by Western blot analysis with a GLUT1-specific antibody.
The estimation of Kd value for RgA was determined with the biotin probe competition binding assay. […] After western blot, band intensities were quantified by densitometry analysis using Image J software. The assay was repeated three times. GraphPad Prism (v4.03) software was used to determine apparent Kd value for RgA using a nonlinear regression.

GLUT3 = GLUT3 (Homo sapiens, UniProt P11169); assay: biotin-RgA pull-down assay, GLUT3; details: lysate of HEK293T overexpressing GLUT3, Western blot
Procedure: (§4) It was further determined whether RgA is specific for GLUT1 using a pair of isogenic cell lines.
(§5) GLUT1 or other isoforms overexpression HEK293T cells were washed once in buffer A (10 mM Tris-HCl, 150 mM KCl, 5 mM MgCl2, 1 mM EGTA, pH 7.4). To extract GLUT1 or isoforms protein, cells were mixed in buffer C (10 mM Tris-HCl, 150 mM KCl, 5 mM MgCl2, 1% DDM, 5% glycerol, 1 mM EGTA, protease inhibitor, pH 7.4) and incubated on ice for 1 h with frequent mixing. The supernatant was collected by centrifugation at 17,000 g for 10 min at 4° C., and then diluted four-fold in buffer A plus 5% glycerol to reduce the concentration of DDM. The diluted supernatant was quantified by protein assay kit and pre-incubated with streptavidin agarose beads at 4° C. for 30 min to remove the endogenous streptavidin-binding proteins. The supernatant was collected by centrifugation at 2,000 rpm for 1 min at 4° C., and diluted to 10 mg/mL for pull-down experiment. For a typical biotin pull- down reaction, 300 μL of supernatant was pretreated with competitor or equal volume of DMSO (as noted hereinabove) for 30 min, before the addition of RgA biotin probe or DMSO (as noted hereinabove). After incubation at 4° C. for 1 h with frequent mixing, 30 μL of streptavidin agarose beads in buffer A was added, and incubation was continued for 2 h. […]

GLUT4 = GLUT4 (Homo sapiens, UniProt P14672); assay: biotin-RgA pull-down assay, GLUT4; details: lysate of HEK293T overexpressing GLUT4, Western blot
Chain of GLUT4 (P14672 whole entry): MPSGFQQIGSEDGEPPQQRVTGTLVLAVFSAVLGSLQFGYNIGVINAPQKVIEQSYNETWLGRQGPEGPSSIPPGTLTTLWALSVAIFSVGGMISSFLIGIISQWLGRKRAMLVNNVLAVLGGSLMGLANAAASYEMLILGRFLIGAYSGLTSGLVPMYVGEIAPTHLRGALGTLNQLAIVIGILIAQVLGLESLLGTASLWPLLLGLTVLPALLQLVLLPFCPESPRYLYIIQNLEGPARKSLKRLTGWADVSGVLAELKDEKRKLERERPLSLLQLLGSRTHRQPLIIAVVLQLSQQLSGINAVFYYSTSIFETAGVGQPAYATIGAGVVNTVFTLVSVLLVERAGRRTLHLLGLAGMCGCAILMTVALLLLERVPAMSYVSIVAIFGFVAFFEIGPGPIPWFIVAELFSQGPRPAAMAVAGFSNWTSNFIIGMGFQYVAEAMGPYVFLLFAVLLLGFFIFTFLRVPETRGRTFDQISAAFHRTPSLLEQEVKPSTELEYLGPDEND
Procedure: as §4, §5

Chain of GLUT3 (P11169 whole entry): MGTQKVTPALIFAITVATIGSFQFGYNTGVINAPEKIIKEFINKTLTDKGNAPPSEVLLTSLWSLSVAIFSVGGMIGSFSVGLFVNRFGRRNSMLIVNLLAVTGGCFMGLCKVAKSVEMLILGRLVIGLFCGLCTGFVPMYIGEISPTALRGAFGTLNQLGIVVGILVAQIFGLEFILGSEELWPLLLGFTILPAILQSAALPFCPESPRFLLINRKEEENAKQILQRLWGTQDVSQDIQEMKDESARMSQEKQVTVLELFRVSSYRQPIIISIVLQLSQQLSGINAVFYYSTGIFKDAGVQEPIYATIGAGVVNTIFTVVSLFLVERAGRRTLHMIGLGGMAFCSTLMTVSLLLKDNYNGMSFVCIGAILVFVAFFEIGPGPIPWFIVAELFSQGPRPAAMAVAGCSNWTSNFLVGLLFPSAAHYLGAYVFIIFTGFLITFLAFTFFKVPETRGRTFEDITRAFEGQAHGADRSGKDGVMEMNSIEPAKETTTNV

SMILES	2D SBR (GLUT1 [1])	3D SBR (GLUT1 [2])	IC50 (A549 cells) [nM]	also measured
C=C1[C@@H](C)[C@H]2[C@H](Cc3ccccc3)NC(=O)[C@]23OC(=O)/C=C/[C@H](O)CCC[C@@H](C)C/C=C/[C@H]3[C@@H]1O [Cytochalasin B, cytochalasin B]	–	–	–	EC50 (DLD1 WT; DLD1 wild type): 545 ± 40.5 nM; EC50 (DLD1 GLUT1 KO; DLD1 GLUT1 knockout): 390 ± 32.7 nM; inhibitory activity in GLUT1 knock out cells (DLD1 GLUT1 KO): maintained its inhibitory activity
Cc1c(NC(=O)c2cc(C(N)=O)nc3cc(F)ccc23)c(C(F)(F)F)nn1Cc1ccc(C#N)cc1 [BAY-876]	<3.0	3.2 ± 0.74	–	EC50 (DLD1 WT; Homo sapiens, DLD-1, DLD1 wild type): 8 ± 1.1 nM; inhibitory activity in GLUT1 knock out cells (DLD1 GLUT1 KO): lost its inhibitory activity; EC50 (DLD1 GLUT1 KO; Homo sapiens, DLD-1, DLD1 GLUT1 knockout): > 1000 nM
COc1ccc(CC[C@H]2OC(=O)[C@@H]3CCCCN3C(=O)C(=O)C(C)(C)COC(=O)C=CCCN(C)C(=O)[C@H]3CCCN3C(=O)[C@H](C(C)C)N(C)C(=O)[C@H](Cc3ccc([N+](=O)[O-])cc3)NC(=O)CN(C)C(=O)COc3cccc2c3)cc1OC [WL12-G5]	<3.0	8.8 ± 2.0	> 3000	–
CCCC[C@H]1C(=O)N2CCC[C@@H]2C(=O)N(C)CCC=CC(=O)OCC(C)(C)C(=O)C(=O)N2CCCC[C@H]2C(=O)O[C@H](CCc2ccc(OC)c(OC)c2)c2cccc(c2)OCC(=O)N(C)CC(=O)N[C@H](Cc2ccc(NC(=O)OC(C)(C)C)cc2)C(=O)N1C [WL11-E7]	<3.0	4.8 ± 0.5	> 3000	–
CCCC[C@H]1C(=O)N2CCC[C@@H]2C(=O)N(C)CCC=CC(=O)OCC(C)(C)C(=O)C(=O)N2CCCC[C@H]2C(=O)O[C@H](CCc2ccc(OC)c(OC)c2)c2cncc(c2)OCC(=O)N(C)CC(=O)N[C@@H](Cc2ccccc2)C(=O)N1C [WL11-G9]	<3.0	3.9 ± 0.3	> 3000	–
COc1ccc(CC[C@H]2OC(=O)[C@@H]3CCCCN3C(=O)C(=O)C(C)(C)COC(=O)C=CCCN(C)C(=O)[C@H](Cc3ccccc3)N(C)C(=O)CCNC(=O)CN(C)C(=O)[C@H](Cc3ccc(O)cc3)NC(=O)COc3cccc2c3)cc1OC [WL05-D8]	<3.0	6.4 ± 1.8	> 3000	–
C=C(CC)C(=O)c1ccc(OCC(=O)O)c(Cl)c1Cl [ethacrynic acid]	–	–	–	proportion of bound ethacrynic acid that was bound covalently [3]: 13.5%
CCC(C)C1C(=O)NC(Cc2ccccc2)C(=O)N(C)CCC=CC(=O)OCC(C)(C)C(=O)C(=O)N2CCCCC2C(=O)OC(CCc2ccc(OC)c(OC)c2)c2cccc(c2)OCC(=O)N(C)CC(=O)NC(Cc2ccc(F)cc2)C(=O)N1C (stereo not shown) [HP05-F5]	<3.0	7.9 ± 2.6	> 3000	–
CCC(C)C1C(=O)NCC(=O)N(C)CCC(SCCCSCC(=O)NCCOCCOCCNC(=O)CCCCC2SCC3NC(=O)NC32)CC(=O)OCC(C)(C)C(=O)C(=O)N2CCCCC2C(=O)OC(CCc2ccc(OC)c(OC)c2)c2cccc(c2)NC(=O)CCC(=O)N(C)C(CC(C)C)C(=O)NC(Cc2ccccc2)C(=O)N1C (stereo not shown) [biotin-RgA]	–	–	211	pulldown of GLUT1 (GLUT1 [4]): capable of pulling down GLUT1; pulldown of GLUT3 (GLUT3): able to pull down both GLUT3 and GLUT4; pulldown of GLUT4 (GLUT4): able to pull down both GLUT3 and GLUT4
